Laboratory results: patent US11787762B2, “Tetralin and tetrahydroquinoline compounds as inhibitors of HIF-2alpha” (ARCUS BIOSCIENCES, INC., priority 2020, dated 2023)

Tests used:
[1] = target: T1, HIF-2α (Homo sapiens, UniProt Q99814); test: HIF-2α luciferase reporter assay in HIF-Luc-786-O cells; assay type: cell-based
T1 construct: host or cells: 786-O cells stably transduced with Cignal Lenti HIF Luc Reporter (only the reporter was introduced, not HIF-2α)
Method in brief: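 Luminescence (ONE-Glo) read after 20 h compound incubation, top concentration 50 uM, 1% DMSO, 20,000 HIF-Luc-786-O cells per well. Activity scaled between DMSO maximum and no-cell baseline; four-parameter dose-response fits yielded IC50.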

[2] = target: T2, Histidine tagged HIF-2α protein containing PAS-B domain (240-350) (Homo sapiens, UniProt Q99814); test: HIF-2α Scintillation Proximity Assay (SPA) binding assay; conditions: 50 nM HIF-2α protein, 25 nM 3H-tracer
T2 construct: HIF-2α protein containing PAS-B domain (240-350); made in house
T2 sequence (Q99814 240-350): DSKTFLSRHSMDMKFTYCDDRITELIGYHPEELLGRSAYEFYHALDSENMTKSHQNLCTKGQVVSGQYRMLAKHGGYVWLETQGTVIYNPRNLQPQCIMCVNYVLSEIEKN
Method: HIF-2α Scintillation Proximity Assay (SPA) Binding Assay:
Tritium labeled compound N-(3-chlorophenyl)-4-nitro-2,1,3-benzoxadiazol-5-amine was obtained from American Radiolabeled Chemicals Inc. and copper chelate PVT SPA beads were from PerkinElmer (Cat #RPNQ0095). Histidine tagged HIF-2α protein containing PAS-B domain (240-350) was prepared and purified in house.
Compounds solubilized in DMSO were dispensed into a white 384-well polystyrene non-binding flat clear bottom plate (Greiner Bio-One, Cat #781903) using an HP D300 dispenser. Ten microliters of HIS-tagged HIF-2α protein in buffer (25 mM Tris-HCl, pH 7.4, 150 mM NaCl, 0.15% BSA and 0.001% Tween 20) was added to the compound wells and allowed to incubate for 1 hour at room temperature. Ten microliters of SPA bead mix were added to the wells and incubated for an additional 45 minutes, followed by 10 ul of ^3H-tracer solution. Final assay conditions comprised 50 nM HIF-2α protein, 25 nM radiolabeled tracer and 3 ug beads per well with compounds in 2% DMSO. The plate was read using a MicroBeta Microplate Counter (PerkinElmer) for luminescence detection. The IC50 values of the test compounds were determined from compound dose response curves fitted using a standard four parameter fit equation and are reported in Table 1, Table 2, and Table 3.

T1 sequence (Q99814 whole entry): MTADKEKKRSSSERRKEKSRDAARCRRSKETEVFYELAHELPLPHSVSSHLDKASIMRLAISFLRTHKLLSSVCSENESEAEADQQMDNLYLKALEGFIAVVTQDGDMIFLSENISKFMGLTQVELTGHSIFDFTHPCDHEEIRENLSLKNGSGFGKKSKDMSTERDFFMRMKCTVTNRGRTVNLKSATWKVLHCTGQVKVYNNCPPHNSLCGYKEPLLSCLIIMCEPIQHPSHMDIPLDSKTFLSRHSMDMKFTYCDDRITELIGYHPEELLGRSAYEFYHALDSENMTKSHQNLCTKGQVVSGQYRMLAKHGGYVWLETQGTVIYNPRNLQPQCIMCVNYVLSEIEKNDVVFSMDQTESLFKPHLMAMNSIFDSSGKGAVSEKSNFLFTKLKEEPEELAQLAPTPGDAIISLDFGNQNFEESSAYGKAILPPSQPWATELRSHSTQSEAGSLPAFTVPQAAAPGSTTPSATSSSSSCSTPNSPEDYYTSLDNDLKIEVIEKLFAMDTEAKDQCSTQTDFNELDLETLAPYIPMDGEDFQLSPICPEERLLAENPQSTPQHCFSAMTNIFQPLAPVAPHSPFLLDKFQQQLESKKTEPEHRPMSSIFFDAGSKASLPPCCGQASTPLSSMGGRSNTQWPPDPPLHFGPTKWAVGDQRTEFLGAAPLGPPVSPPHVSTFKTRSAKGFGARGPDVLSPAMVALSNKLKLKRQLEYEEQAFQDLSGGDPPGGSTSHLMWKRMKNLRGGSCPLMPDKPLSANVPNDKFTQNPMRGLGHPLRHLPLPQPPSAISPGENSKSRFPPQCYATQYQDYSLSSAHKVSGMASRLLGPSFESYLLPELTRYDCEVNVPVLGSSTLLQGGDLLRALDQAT

| IC50 ([1]; Table 1, 20 hours incubation) | IC50 ([2]; Table 1) | SMILES | further results |
| --- | --- | --- | --- |
| 100 to 1000 nM | 100 to 1000 nM | O=S(=O)(c1ccc(N2CCC(CO)c3cc(F)cc(F)c32)c2c1[C@H](O)[C@H](F)C2)C(F)(F)F (stereo partly shown) [Example 27] | – |
| > 1000 nM | > 1000 nM | CS(=O)(=O)c1ccc([C@H]2NCCc3cc(F)cc(F)c32)c2c1[C@H](O)C(F)(F)C2 [Example 111] | – |
| > 1000 nM | > 1000 nM | CS(=O)(=O)c1ccc([C@@H]2CCCc3cc(F)cc(C#N)c32)c2c1[C@H](O)[C@@H](F)CC2 [Example 105] | – |
| > 1000 nM | > 1000 nM | CS(=O)(=O)c1ccc([C@@H]2CCCc3cc(F)cc(F)c32)c2c1[C@H](O)[C@H](F)C2 [Example 3, (1S,2R)-4-[(1S)-6,8-difluoro-1,2,3,4-tetrahydronaphthalen-1-yl]-2-fluoro-7-methanesulfonyl-2,3-dihydro-1H-inden-1-ol] | – |
| < 100 nM | < 100 nM | CC1(C)CC[C@H](c2ccc(S(=O)(=O)C(F)(F)F)c3c2C[C@@H](F)[C@H]3O)c2c(C#N)cc(F)cc21 [Example 114] | – |
| > 1000 nM | > 1000 nM | O=S(=O)(c1ccc([C@@H]2CCNc3cc(F)cc(F)c32)c2c1[C@H](O)[C@H](F)C2)C(F)(F)F [Example 112] | – |
| 100 to 1000 nM | 100 to 1000 nM | CS(=O)(=O)c1ccc(N2CCCc3cc(F)cc(C#N)c32)c2c1[C@H](O)C(F)(F)C2 (racemic) [Example 31] | – |
| 100 to 1000 nM | 100 to 1000 nM | O=S(=O)(c1ccc([C@@H]2CCCc3cc(F)cc(F)c32)c2c1[C@H](O)[C@H](F)C2)C(F)(F)F [Example 2b, (1S,2R)-4-[S-6,8-difluoro-1,2,3,4-tetrahydronaphth-1-yl]-2-fluoro-7-(trifluoromethylsulfonyl)-1-indanol] | – |

More lines, now with the values behind:

| SMILES | IC50 ([1]; Table 1, 20 hours incubation) | IC50 ([2]; Table 1) | further results |
| --- | --- | --- | --- |
| N#Cc1cc(N2CCCc3cc(F)cc(C#N)c32)ccc1C(F)(F)F [Example 39] | > 1000 nM | < 100 nM | – |
| O=[N+]([O-])c1c(N2CCCc3cc(F)cc(F)c32)ccc2nonc12 [Example 34] | 100 to 1000 nM | > 1000 nM | – |
| N#Cc1cc(F)cc2c1N(c1ccc(S(=O)(=O)C(F)(F)F)c3c1C[C@@H](F)[C@H]3O)CCO2 [Example 19, 7-fluoro-4-((1S,2R)-2-fluoro-1-hydroxy-7-((trifluoromethyl)sulfonyl)-2,3-dihydro-1H-inden-4-yl)-3,4-dihydro-2H-benzo[b][1,4]oxazine-5-carbonitrile] | 100 to 1000 nM | 100 to 1000 nM | – |
| N#Cc1cc(F)cc2c1N(c1ccc(C(F)(F)F)c(F)c1C#N)CC[C@@H]2F [Example 121, (4S)-1-[2-Cyano-3-fluoro-4-(trifluoromethyl)phenyl]-4,6-difluoro-3,4-dihydro-2H-quinoline-8-carbonitrile] | – | – | IC50 ([1]; Table 2, 20 hours incubation): < 100 nM; IC50 ([2]; Table 2): < 100 nM |
| Cc1c(F)ccc2c1N(c1ccc(S(=O)(=O)C(F)(F)F)cc1[N+](=O)[O-])CCC2 [Example 46] | > 1000 nM | > 1000 nM | – |
| Cc1cn[nH]c1-c1ccc([C@H]2CC[C@H](F)c3cc(F)cc(C#N)c32)c2c1[C@H](O)C(F)(F)C2 [Example 154, (5S,8R)-8-[(1S)-2,2-difluoro-1-hydroxy-7-(4-methyl-1H-pyrazol-5-yl)-1,3-dihydroinden-4-yl]-3,5-difluoro-5,6,7,8-tetrahydronaphthalene-1-carbonitrile] | – | – | IC50 ([1]; Table 3, 20 hours incubation): < 100 nM; IC50 ([2]; Table 3): < 100 nM |
| N#Cc1cc(F)cc2c1N(c1ccc(C(F)(F)F)c(F)c1CO)CCC2 [Example 42] | > 1000 nM | 100 to 1000 nM | – |
| CS(=O)(=O)c1ccc(N2CCCc3cc(F)cc(C#N)c32)c(Cl)c1C#N [Example 11, 1-(2-Chloro-3-cyano-4-methanesulfonylphenyl)-6-fluoro-1,2,3,4-tetrahydroquinoline-8-carbonitrile] | 100 to 1000 nM | 100 to 1000 nM | – |
| Cc1ccncc1-c1ccc([C@H]2CC[C@H](F)c3cc(F)cc(C#N)c32)c2c1[C@H](O)C(F)(F)C2 [Example 241, (5S,8R)-8-[(1S)-2,2-difluoro-1-hydroxy-7-(4-methylpyridin-3-yl)-2,3-dihydro-1H-inden-4-yl]-3,5-difluoro-5,6,7,8-tetrahydronaphthalene-1-carbonitrile] | – | – | IC50 ([1]; Table 3, 20 hours incubation): < 100 nM; IC50 ([2]; Table 3): < 100 nM |
